Assay results reported in patent US7186534B1 (The Trustees of Columbia University in the City of New York, priority 1997, dated 2007).
Read-outs that look alike come from different tables or passages of the source.

Legend:
Format in all cases: biochemical
[1] = molecular target: T1, human 9-cis retinol dehydrogenase (9cRDH) (Homo sapiens, UniProt Q92781); assay: Inhibition of recombinant human 9cRDH activity (9-cis-retinol oxidation, CHO cell homogenate, HPLC)
T1 sequence (Q92781 1-318): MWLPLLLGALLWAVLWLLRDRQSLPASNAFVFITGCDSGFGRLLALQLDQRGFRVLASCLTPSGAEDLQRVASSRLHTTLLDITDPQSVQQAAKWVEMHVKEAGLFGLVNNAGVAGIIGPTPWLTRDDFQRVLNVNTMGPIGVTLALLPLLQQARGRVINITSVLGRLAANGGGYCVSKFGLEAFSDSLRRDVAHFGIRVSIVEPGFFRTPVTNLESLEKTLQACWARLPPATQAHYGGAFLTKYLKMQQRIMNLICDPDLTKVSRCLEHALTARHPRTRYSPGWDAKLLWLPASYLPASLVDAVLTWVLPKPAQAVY

mouse 9cRDH [2] = molecular target: T2, mouse 9cRDH (Mus musculus, UniProt O55240); assay: Inhibition of recombinant mouse 9cRDH activity (9-cis-retinol oxidation, CHO cell homogenate, HPLC)
T2 sequence (O55240 1-318): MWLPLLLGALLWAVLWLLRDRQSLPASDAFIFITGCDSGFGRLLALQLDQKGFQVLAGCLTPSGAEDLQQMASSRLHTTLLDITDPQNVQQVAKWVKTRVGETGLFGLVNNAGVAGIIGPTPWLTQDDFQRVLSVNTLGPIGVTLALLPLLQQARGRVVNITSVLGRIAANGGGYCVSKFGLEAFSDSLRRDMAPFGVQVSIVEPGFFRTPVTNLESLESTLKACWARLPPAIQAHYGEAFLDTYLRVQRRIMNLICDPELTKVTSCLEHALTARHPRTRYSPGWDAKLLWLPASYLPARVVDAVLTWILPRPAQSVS

human 9cRDH = molecular target: T3, human 9cRDH (Homo sapiens, UniProt Q92781); assay: Hydroxysteroid oxidation/reduction by human 9cRDH (TLC); conditions: 37° C., 1.5 h; TLC detection limit approximately 3 pmol/min/mg protein
T3 sequence (Q92781 1-318): T1 sequence (Q92781 1-318)
Protocol: (§1) To investigate whether human or mouse 9cRDH will catalyze oxidations or reductions of 3α-hydroxy-, 11β-hydroxy- or 17β-hydroxysteroids, these steroids were incubated at 37° C. for 1.5 h in the assay media described above for assessing oxidation/reduction of 9-cis-retinol/9-cis-retinaldehyde. The Hepes NAD^+-containing assay buffer described above was employed to assess hydroxysteroid oxidation and to assess hydroxysteroid reduction the acetate buffer containing NADH (or NADPH) assay buffer (see above) was employed. Immediately following incubation, the steroids were extracted as described above for retinoids. The final hexane extract was evaporated to near dryness and this was spotted onto a silica high performance TLC plate (Whatman Inc., Clifton, N.J.) and developed in hexane/diethyl ether/acetic acid (70:30:1, v/v) or ethyl acetate/chloroform (25:75, v/v). Steroids were visualized by charring after treatment of the TLC plates with an areosol of 10% (v/v) H2SO4 in methanol.
(§2) Biswas and Russell (32) have reported that rat liver all-trans-retinol dehydrogenase type I also uses several 3α-hydroxy- and 17β-hydroxysteroids as substrates. Chai et al. (18) also reported that hydroxysteroids are substrates for mouse liver cis-retinol dehydrogenase. Since human 9cRDH is approximately 50% identical to the rat liver enzymes and shares approximately 63% homology to mouse liver cis-retinol dehydrogenase, next investigated was whether these steroids might also be substrates for 9cRDH. To test this possibility it was determined whether human or mouse 9cRDH would catalyze oxidation of 5α-androstan-3α, 17β-diol, androsterone, testosterone or dihydrotestosterone to corresponding ketone products. Also investigated was whether human and/or mouse 9cRDH could catalyze reduction of the corresponding ketones. […] It is estimate, based on the lower limits for hydroxysteroid detection by TLC, that it would be possible to detect rates of hydroxysteroid oxidation as low as approximately 3 pmol/min/mg protein. This rate of hydroxysteroid oxidation is at least 2-orders of magnitude lower than Vmax values reported by Biswas and Russell (32) and Chai et al. (18) for oxidation of hydroxysteroids in their studies of enzymes that are able to oxidize both retinol and hydroxysteroids.

mouse 9cRDH [3] = molecular target: T2, mouse 9cRDH; assay: Hydroxysteroid oxidation/reduction by mouse 9cRDH (TLC); conditions: 37° C., 1.5 h; TLC detection limit approximately 3 pmol/min/mg protein
Protocol: as §1, §2

human 9cRDH (h9cRDH) [4] = molecular target: T4, human 9cRDH (h9cRDH) (Homo sapiens, UniProt Q92781); assay: Retinaldehyde isomer reduction by recombinant human 9cRDH; conditions: substrate 10 μM, 15 min, 150–180 μg protein/assay, NADH, pH 5.0
T4 sequence (Q92781 1-318): T1 sequence (Q92781 1-318)
Protocol: (§3) Enzymatic Assays. Assays for human and mouse 9cRDH were carried out essentially as were described previously for human 9cRDH (19). For expression of mouse 9cRDH a cDNA clone obtained from a mouse liver cDNA library was employed (see below). Recombinant human or mouse 9cRDH expressed in CHO cells was incubated in an assay mixture containing 10 μM 9-cis-retinol (added in 0.02 mL ethanol) and 2 mM NAD in 10 mM Hepes, pH 8.0, containing 150 mM KCl, 1 mM EDTA, and 50 μg phosphotidyl choline for 15 min at 37° C. (final assay volume of 0.6 ml) with agitation. This assay mixture was used routinely to measure oxidation of 9-cis-retinol to 9-cis-retinaldehyde and in studies assessing oxidation of 11-cis-, 13-cis- and all-trans-retinol to their corresponding aldehydes. For some experiments, the ability of human or mouse 9cRDH to catalyze the reduction of 9-cis-, 11-cis-, 13-cis- or all-trans-retinaldehyde was assessed. To assess these reduction reactions, incubations were carried out in 100 mM sodium acetate, pH 5.0, containing 50 μg phosphotidyl choline and 2 mM NADH (or 2 mM NADPH) in a final volume of 0.6 ml for 15 min at 37° C.
(§4) Immediately following incubation of the assay, the assay mixture was denatured with an equal volume of absolute ethanol (0.6 ml), and the retinoids extracted into 2.5 ml of hexane. Following one backwash of the hexane extract with 0.5 ml of deionized water, the hexane was evaporated to dryness under a gentle stream of N2. The extracted retinoids were immediately redissolved in 120 μl of hexane and analyzed by normal phase HPLC as described below.

mouse 9cRDH (m9cRDH) [5] = molecular target: T5, mouse 9cRDH (m9cRDH) (Mus musculus, UniProt O55240); assay: Retinaldehyde isomer reduction by recombinant mouse 9cRDH; conditions: substrate 10 μM, 15 min, 150–180 μg protein/assay, NADH, pH 5.0
T5 sequence (O55240 1-318): T2 sequence (O55240 1-318)
Protocol: as §3, §4

human 9cRDH (h9cRDH) [6] = molecular target: T4, human 9cRDH (h9cRDH); assay: Retinol isomer oxidation by recombinant human 9cRDH (substrate and cofactor specificity); conditions: for h9cRDH specific activity, retinol oxidation: substrate 10 μM, 15 min, 150–180 μg protein/assay, NAD+
Protocol: Enzymatic Assay of Retinol Dehydrogenase Activity. Transfected CHO cell pellets were homogenized in PBS at 4° C. using 50 strokes of a Dounce homogenizer For assay of retinol dehydrogenase activity, aliquots of unfractionated CHO cell homogenate were incubated with 10, μM retinol (either as the all-trans, 13-cis, or 9-cis isomer added in ethanol) and either 2 mM NAD+ or 2 mM NADP+ in 10 mM Hepes containing 150 mM KCl, 1 mM EDTA, and 10, μg/ml phosphotidyl choline at pH 8.0 and 37° C. for prechosen time intervals. The final assay volume was 0.6 ml. Assays were routinely carried out in amber glass tubes that had been flushed with N2 to shield the retinoids from both light and O2 All subsequent extractions and procedures were carried out in a manner that minimized exposure of the retinoids to light and O2.
Immediately following incubation, the assay mixture was denatured with an equal volume of absolute ethanol (0.6 ml), and the retinoids were extracted into 3 ml of HPLC grade hexane. Following one backwash of the hexane extract with 0.5 ml of deionized water, the hexane was evaporated to dryness under a gentle stream of N2, and the extracted retinoids were immediately redissolved in 120 μl of hexane and analyzed by normal phase HPLC (see below).
HPLC Procedures. Stereoisomers of both retinol and retinaldehyde were separated on a 4.6×250-mm Vydac 101HS54 silica column using hexane:n-propanol:1-octanol (98.9:1.0:0.1 v/v) flowing at 1.5 ml/min as the mobile phase. The running column was preceded by a silica guard column. Retinols and retinaldehydes were detected by UV absorbance at 350 nm. Retention times for all-trans-, 13-cis-, and 9-cis-retinols were established using purified compounds obtained as described above. Retention times for all-trans-, 13-cis-, and 9-cis-retinaldehyde were determined using commercial standards (Sigma). Quantities of each retinol and retinaldehyde isomer present in extracts were determined by comparisons of the integrated areas under the HPLC peaks with a standard curve constructed relating integrated peak area with known masses of each retinoid isomer. The concentrations of each retinoid isomer were determined by UV-visible spectrophotometry using published extinction coefficients for each retinol and retinaldehyde isomer (26).
as §3, §4

mouse 9cRDH (m9cRDH) [7] = molecular target: T5, mouse 9cRDH (m9cRDH); assay: Retinol isomer oxidation by recombinant mouse 9cRDH; conditions: for m9cRDH specific activity, retinol oxidation: substrate 10 μM, 15 min, 150–180 μg protein/assay, NAD+
Protocol: as §3, §4

[8] = 10 μM steroid, equimolar to substrate, forward (retinol oxidation) or reverse (retinaldehyde reduction) direction

SMILES	catalysis by human 9cRDH of hydroxysteroid oxidation to ketone products (or reduction of the corresponding ketones) (human 9cRDH)	catalysis by mouse 9cRDH of hydroxysteroid oxidation to ketone products (or reduction of the corresponding ketones) (mouse 9cRDH [3])	h9cRDH specific activity, retinaldehyde reduction (human 9cRDH (h9cRDH) [4])	m9cRDH specific activity, retinaldehyde reduction (mouse 9cRDH (m9cRDH) [5])	h9cRDH specific activity, retinol oxidation (human 9cRDH (h9cRDH) [6])	m9cRDH specific activity, retinol oxidation (mouse 9cRDH (m9cRDH) [7])	other results
C[C@]12CCC(=O)C[C@@H]1CC[C@@H]1[C@@H]2CC[C@]2(C)[C@@H](O)CC[C@@H]12 [5α-androstan-17βol-3one]	Neither human nor mouse 9cRDH were found to catalyze	Neither human nor mouse 9cRDH were found to catalyze	–	–	–	–	inhibition of human 9cRDH activity by hydroxysteroids [1]: none of these hydroxysteroids inhibited; inhibition of mouse 9cRDH activity by hydroxysteroids (mouse 9cRDH [2]): none of these hydroxysteroids inhibited
C[C@]12CC[C@@H](O)C[C@@H]1CC[C@@H]1[C@@H]2CC[C@]2(C)[C@@H](O)CC[C@@H]12 [5α-androstane-3α, 17βdiol]	Neither human nor mouse 9cRDH were found to catalyze	Neither human nor mouse 9cRDH were found to catalyze	–	–	–	–	inhibition of human 9cRDH activity by hydroxysteroids [1, 8]: none of these hydroxysteroids inhibited; inhibition of mouse 9cRDH activity by hydroxysteroids (mouse 9cRDH [2]; [8]): none of these hydroxysteroids inhibited
CC1=C(/C=C/C(C)=C\C=C\C(C)=C\C=O)C(C)(C)CCC1 [9-cis-retinaldehyde]	–	–	268 pmol/min/mg protein	420 pmol/min/mg protein	–	–	–
CC1=C(/C=C/C(C)=C\C=C\C(C)=C\CO)C(C)(C)CCC1 [9-cis-retinol]	–	–	–	–	367 pmol/min/mg protein	328 pmol/min/mg protein	oxidation to the corresponding retinaldehyde by transfected CHO cell homogenate (in words) (human 9cRDH (h9cRDH) [6]; 2 mM NAD+): avidly oxidized; share of the added retinol oxidized to retinaldehyde by CHO cell homogenate (human 9cRDH (h9cRDH) [6]; in assay concentration 10 μM): Over 60%; rate of oxidation by mouse enzyme as multiple of the rate of 11-cis-retinol oxidation (mouse 9cRDH (m9cRDH) [7]): 2 times
CC1=C(/C=C/C(C)=C/C=C\C(C)=C\C=O)C(C)(C)CCC1 [11-cis-retinaldehyde]	–	–	1220 pmol/min/mg protein	506 pmol/min/mg protein	–	–	–
CC1=C(/C=C/C(C)=C/C=C\C(C)=C\CO)C(C)(C)CCC1 [11-cis-retinol]	–	–	–	–	442 pmol/min/mg protein	152 pmol/min/mg protein	–
